# Reference: patent US20090196918A1, “Liposomal formulations of hydrophobic lactone drugs in the presence of metal ions” (University of Kentucky Research Foundation, priority 2008, published 2009)
# Tests used:
# [1] = animal data, intravenous administration; cited from earlier work
# [2] = Release of DB-67 from liposomes (dialysis at 37° C., HPLC analysis); format: physicochemical
# Description: The drug/cyclodextrin solution was used to hydrate phospholipids (DSPC, 40 mg/ml) with vigorous shaking at 60° C. to form a suspension of multilamellar vesicles. The suspension was extruded through a high-pressure extruder to form unilamellar vesicles. […] A small amount of this micellar solution was added to the unilamellar vesicles following extrusion and incubated at 60° C. for 5 min. The vesicles were then cooled at room temperature and stored below 5° C. until use. Prior to use, liposomes were separated from unentrapped drug by passing through a gel filtration column which was pre-equilibrated with pH 7.4 “carbonated” phosphate buffered saline (PBS). “Carbonated” PBS was prepared at physiological concentration of carbonate, phosphate and sodium chloride such that the total solute concentration of the buffer was isoosmotic with that of whole blood. […] 100 μl samples were taken from inside the dialysis tube at various time intervals and diluted into 900 μl of ice-cold solution of methanol and acetonitrile (2:1, v/v) at -25° C. Following dilution samples were stored at -25° C. until HPLC analysis. […] Liposomes were separated from the unentrapped drug and HPβCD by size exclusion chromatography on Sephadex® columns. […] The pipette tip used for sampling was washed in the same quenching solution to transfer any adsorbed drug. […] Following dialysis, samples were withdrawn from the dialysis tube, diluted into methanol, and stored at -25° C. until HPLC analysis. […] The sampling and processing conditions were the same as in the pH-permeability studies described earlier. The effect of varying intravesicular pH on the apparent permeability was probed only at a single (50 mM) cyclodextrin concentration.
# [3] = Drug loading of DB-67 into liposomes by passive encapsulation
smiles,measurement,setting,value
"CC[C@@]1(O)C(=O)OCc2c1cc1n(c2=O)Cc2c-1nc1ccc(O)cc1c2[Si](C)(C)C(C)(C)C [DB-67, 7-t-butyldimethylsilyl-10-hydroxycamptothecin]",lactone to total AUC,[1],> 90%
same,drug retention in liposomes as a function of pH,"[2]; increasing pH, intravesicular cyclodextrin constant at 50 mM (FIG. 4)",increases drug retention
same,release profile of DB-67 from liposomes,"[2]; liposomes prepared at pH 4, citrate buffer, 0.1 M hydroxypropyl-β-cyclodextrin (FIG. 2)",uniform release profile
same,release profile of DB-67 from liposomes,"[2]; liposomes prepared at pH 7.4, citrate buffer, 0.1 M hydroxypropyl-β-cyclodextrin (FIG. 3)",uniform release
same,DB-67 concentration of liposome suspension that could be prepared (loading),"[3]; absence of cyclodextrin, all drug is entrapped",0.05 mg/mL
same,DB-67 concentration of liposome suspension that could be prepared (loading),"[3]; intraliposomal pH increased to 9.5, with hydroxypropyl-β-cyclodextrin",1.4 mg/mL
